From PubChem BioAssay (NCI)
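Tested at 5 concentrations; 48 h exposure; 96-well plates; endpoints linearly interpolated, else capped at highest concentration. TGI: concentration producing complete growth inhibition.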

Columns and labels:
Experiment in all cases: inhibition of tumour cell growth, NCI panel, 48 h
786-0 renal = test system: 786-0 renal
A549 NSCLC = test system: A549 NSCLC
ACHN renal = test system: ACHN renal
CAKI-1 renal = test system: CAKI-1 renal
CCRF-CEM leukemia = test system: CCRF-CEM leukemia
COLO 205 colon = test system: COLO 205 colon
DU-145 prostate = test system: DU-145 prostate
EKVX NSCLC = test system: EKVX NSCLC
HCT-116 colon = test system: HCT-116 colon
HCT-15 colon = test system: HCT-15 colon
HL-60(TB) leukemia = test system: HL-60(TB) leukemia
HOP-62 NSCLC = test system: HOP-62 NSCLC
HOP-92 NSCLC = test system: HOP-92 NSCLC
HS 578T breast = test system: HS 578T breast
HT29 colon = test system: HT29 colon
IGROV1 ovarian = test system: IGROV1 ovarian
K-562 leukemia = test system: K-562 leukemia
KM12 colon = test system: KM12 colon
LOX IMVI melanoma = test system: LOX IMVI melanoma
M14 melanoma = test system: M14 melanoma
MALME-3M melanoma = test system: MALME-3M melanoma
MCF7 breast = test system: MCF7 breast
MDA-MB-231 breast = test system: MDA-MB-231 breast
MDA-MB-435 = test system: MDA-MB-435
MDA-N = test system: MDA-N
MOLT-4 leukemia = test system: MOLT-4 leukemia
NCI-H226 lung = test system: NCI-H226 lung
NCI-H23 lung = test system: NCI-H23 lung
NCI-H460 lung = test system: NCI-H460 lung
NCI-H522 lung = test system: NCI-H522 lung
NCI/ADR-RES ovarian = test system: NCI/ADR-RES ovarian
OVCAR-3 ovarian = test system: OVCAR-3 ovarian
OVCAR-4 ovarian = test system: OVCAR-4 ovarian
OVCAR-5 ovarian = test system: OVCAR-5 ovarian
OVCAR-8 ovarian = test system: OVCAR-8 ovarian
PC-3 prostate = test system: PC-3 prostate
RPMI-8226 leukemia = test system: RPMI-8226 leukemia
RXF 393 renal = test system: RXF 393 renal
SF-268 CNS = test system: SF-268 CNS
SF-295 CNS = test system: SF-295 CNS
SF-539 CNS = test system: SF-539 CNS
SK-MEL-2 melanoma = test system: SK-MEL-2 melanoma
SK-MEL-28 melanoma = test system: SK-MEL-28 melanoma
SK-MEL-5 melanoma = test system: SK-MEL-5 melanoma
SK-OV-3 ovarian = test system: SK-OV-3 ovarian
SN12C renal = test system: SN12C renal
SNB-19 CNS = test system: SNB-19 CNS
SNB-75 CNS = test system: SNB-75 CNS
SR leukemia = test system: SR leukemia
SW-620 colon = test system: SW-620 colon
TK-10 renal = test system: TK-10 renal
U251 CNS = test system: U251 CNS
UACC-257 melanoma = test system: UACC-257 melanoma
UACC-62 melanoma = test system: UACC-62 melanoma
UO-31 renal = test system: UO-31 renal
A498 renal = test system: A498 renal
HCC-2998 colon = test system: HCC-2998 colon
T-47D breast = test system: T-47D breast

CN(NC(=O)/C(=C/c1ccc(Cl)cc1)NC(=O)c1ccccc1)c1cn[nH]c(=O)c1Cl
TGI (786-0 renal): > 100 µM
TGI (A549 NSCLC): > 100 µM
TGI (ACHN renal): > 100 µM
TGI (CAKI-1 renal): > 100 µM
TGI (CCRF-CEM leukemia): > 100 µM
TGI (COLO 205 colon): > 100 µM
TGI (DU-145 prostate): > 100 µM
TGI (EKVX NSCLC): > 100 µM
TGI (HCT-116 colon): > 100 µM
TGI (HCT-15 colon): > 100 µM
TGI (HL-60(TB) leukemia): 41.6 µM
TGI (HOP-62 NSCLC): > 100 µM
TGI (HOP-92 NSCLC): > 100 µM
TGI (HS 578T breast): > 100 µM
TGI (HT29 colon): > 100 µM
TGI (IGROV1 ovarian): > 100 µM
TGI (K-562 leukemia): > 100 µM
TGI (KM12 colon): > 100 µM
TGI (LOX IMVI melanoma): > 100 µM
TGI (M14 melanoma): > 100 µM
TGI (MALME-3M melanoma): > 100 µM
TGI (MCF7 breast): > 100 µM
TGI (MDA-MB-231 breast): > 100 µM
TGI (MDA-MB-435): > 100 µM
TGI (MDA-N): > 100 µM
TGI (MOLT-4 leukemia): 84.2 µM
TGI (NCI-H226 lung): > 100 µM
TGI (NCI-H23 lung): > 100 µM
TGI (NCI-H460 lung): > 100 µM
TGI (NCI-H522 lung): 56.6 µM
TGI (NCI/ADR-RES ovarian): > 100 µM
TGI (OVCAR-3 ovarian): > 100 µM
TGI (OVCAR-4 ovarian): > 100 µM
TGI (OVCAR-5 ovarian): > 100 µM
TGI (OVCAR-8 ovarian): > 100 µM
TGI (PC-3 prostate): > 100 µM
TGI (RPMI-8226 leukemia): 53.5 µM
TGI (RXF 393 renal): > 100 µM
TGI (SF-268 CNS): > 100 µM
TGI (SF-295 CNS): > 100 µM
TGI (SF-539 CNS): > 100 µM
TGI (SK-MEL-2 melanoma): > 100 µM
TGI (SK-MEL-28 melanoma): > 100 µM
TGI (SK-MEL-5 melanoma): > 100 µM
TGI (SK-OV-3 ovarian): > 100 µM
TGI (SN12C renal): > 100 µM
TGI (SNB-19 CNS): > 100 µM
TGI (SNB-75 CNS): > 100 µM
TGI (SR leukemia): > 100 µM
TGI (SW-620 colon): > 100 µM
TGI (TK-10 renal): > 100 µM
TGI (U251 CNS): > 100 µM
TGI (UACC-257 melanoma): > 100 µM
TGI (UACC-62 melanoma): > 100 µM
TGI (UO-31 renal): > 100 µM

CC1CN=C(N(Cc2ccc(F)cc2)C(=O)Nc2ccc(Cl)cc2)S1 (configuration not stated)
TGI (786-0 renal): > 100 µM
TGI (A498 renal): 67.4 µM
TGI (A549 NSCLC): > 100 µM
TGI (ACHN renal): > 100 µM
TGI (CAKI-1 renal): > 100 µM
TGI (CCRF-CEM leukemia): > 100 µM
TGI (COLO 205 colon): > 100 µM
TGI (DU-145 prostate): > 100 µM
TGI (EKVX NSCLC): 69.2 µM
TGI (HCC-2998 colon): 76.6 µM
TGI (HCT-116 colon): > 100 µM
TGI (HCT-15 colon): > 100 µM
TGI (HL-60(TB) leukemia): 91 µM
TGI (HOP-62 NSCLC): > 100 µM
TGI (HS 578T breast): > 100 µM
TGI (HT29 colon): 65.8 µM
TGI (IGROV1 ovarian): > 100 µM
TGI (K-562 leukemia): > 100 µM
TGI (KM12 colon): > 100 µM
TGI (LOX IMVI melanoma): 54.5 µM
TGI (M14 melanoma): 17.4 µM
TGI (MALME-3M melanoma): > 100 µM
TGI (MCF7 breast): 64 µM
TGI (MDA-MB-231 breast): > 100 µM
TGI (MDA-N): 61.1 µM
TGI (MOLT-4 leukemia): > 100 µM
TGI (NCI-H23 lung): > 100 µM
TGI (NCI-H460 lung): > 100 µM
TGI (NCI/ADR-RES ovarian): > 100 µM
TGI (OVCAR-3 ovarian): > 100 µM
TGI (OVCAR-4 ovarian): > 100 µM
TGI (OVCAR-5 ovarian): > 100 µM
TGI (OVCAR-8 ovarian): > 100 µM
TGI (PC-3 prostate): > 100 µM
TGI (RPMI-8226 leukemia): > 100 µM
TGI (SF-268 CNS): > 100 µM
TGI (SF-295 CNS): > 100 µM
TGI (SF-539 CNS): > 100 µM
TGI (SK-MEL-2 melanoma): 37.5 µM
TGI (SK-MEL-28 melanoma): 71.7 µM
TGI (SK-MEL-5 melanoma): 29.4 µM
TGI (SK-OV-3 ovarian): > 100 µM
TGI (SN12C renal): > 100 µM
TGI (SNB-19 CNS): > 100 µM
TGI (SNB-75 CNS): > 100 µM
TGI (SR leukemia): > 100 µM
TGI (SW-620 colon): > 100 µM
TGI (T-47D breast): > 100 µM
TGI (TK-10 renal): > 100 µM
TGI (U251 CNS): > 100 µM
TGI (UACC-257 melanoma): > 100 µM
TGI (UO-31 renal): > 100 µM
